Laboratory results from US9615576B2, “Pesticidal compositions and processes related thereto” (Dow AgroSciences LLC, priority 2011, dated 2017).

Legend:
[1] = test system: Beet Armyworm (BAW) (Spodoptera exigua); test: Bioassays on Beet Armyworm (BAW), 128-well diet tray assay; assay type: in vivo; details: 168 h, 50 μg/cm^2 test compound on artificial diet, second instar larvae, 25° C., five to seven days, average of eight wells, read-out: BAW Rating (% mortality)
Method in brief: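 Second-instar larvae (1–5 per well) on artificial diet surface-treated with 50 μg/cm^2 compound applied in 90:10 acetone-water and dried; eight wells per compound. Held 5–7 days at 25° C., 14:10 light-dark. Percent mortality scored per well and averaged over eight wells.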

[2] = test system: Corn Earworm (CEW) (Helicoverpa zea); test: Bioassays on Corn Earworm (CEW), 128-well diet tray assay; assay type: in vivo; details: 168 h, 50 μg/cm^2 test compound on artificial diet, second instar larvae, 25° C., five to seven days, average of eight wells, read-out: CEW Rating (% mortality)
Method in brief: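 Second-instar larvae (one to five per well) placed on artificial diet treated with 50 μg/cm^2 compound in 90:10 acetone-water, dried; eight wells per compound. Held at 25° C, 14:10 light-dark, five to seven days; percent mortality averaged over wells.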

| Structure (SMILES) | melting point | mortality at 50 µg/cm2 [1] | mortality at 50 µg/cm2 [2] |
| --- | --- | --- | --- |
| NC(=O)c1ccc(/C=C/C(c2cc(Cl)cc(Cl)c2)C(F)(F)F)cc1 (stereo not shown) [AC2] | 110 to 112 °C | – | – |
| C/C(=C\C(c1cc(Cl)cc(Cl)c1)C(F)(F)F)c1ccc(-n2cncn2)cc1 (stereo not shown) [DC68, (E)-1-(4-(4-(3,5-dichlorophenyl)-5,5,5-trifluoropent-2-en-2-yl)phenyl)-1H-1,2,4-triazole] | – | 50 to 100% | 50 to 100% |
| OC(/C=C/c1ccc(-n2cncn2)cc1)(c1cc(Cl)cc(Cl)c1)C(F)(F)F (stereo not shown) [DC69, (E)-4-(4-(1H-1,2,4-triazol-1-yl)phenyl)-2-(3,5-dichlorophenyl)-1,1,1-trifluorobut-3-en-2-ol] | – | 0% | 0% |
| COC(/C=C/c1ccc(-n2cncn2)cc1)(c1cc(Cl)cc(Cl)c1)C(F)(F)F (stereo not shown) [DC70, (E)-1-(4-(3-(3,5-dichlorophenyl)-4,4,4-trifluoro-3-methoxybut-1-en-1-yl)phenyl)-1H-1,2,4-triazole] | – | 50 to 100% | 50 to 100% |
